# Experimental data published in patent US20220401385A1, “Combination Therapy Based on PD-1 Signaling Inhibitors” (Kyoto University, priority 2019, published 2022).
# “Also recorded” adds a separate entry of the source.
# Key:
# CD44 high CD8+ T cells [1] = test: Observation of mitochondria under electron microscope, CD44 high cells; format: cell-based, mice; details: SPD 0.2 μM, 1 hour
# Method: FIG. 5 CD8^+ T cells were isolated from the spleen of mice without tumor inoculation, and further isolated into CD44^+ (CD44 high) and CD44^− (CD44 low) cell populations. a) CD44 low cells were simulated with CD3/CD28 antibody beads and SPD (0.2 μM). […] Protein expression levels after 1 hour and 2 hours were confirmed by western blotting with the respective indicated antibodies. As regards statistical analysis, t-test was used for comparison of two groups. * p<0.05, ** p<0.01, *** p<0.001, **** p<0.0001.
# CD8^+ T cells (2×10^5) were stimulated with 0.2 μM spermidine for 1 hour. Then, cells were harvested, embedded in Ipgell (GenoStaff) and fixed with 4% paraformaldehyde and 2% glutaraldehyde. Images were taken with a transmission electron microscope (TEM). Mitochondrial size was determined with ImageJ software. As regards mitochondrial number, average numbers in single cell were determined with Prism software. Blind testing was used for observation and analysis of mitochondria.
# T cells = test: Function of oxidative phosphorylation in T cells (OCR, Seahorse); format: cell-based
# Method: The function of oxidative phosphorylation in T cells may be measured as described below. Briefly, the oxygen consumption rate (OCR) of T cells is measured with an extracellular flux analyzer (Seahorse). Baseline OCR and the OCR for the case where carbonyl cyanide-4 (trifluoromethoxy) phenylhydrazone (FCCP), or a reagent that is activated to the maximum extent upon addition of a mitochondrial function terminating agent (oligomycin, Antimycine A/Rotenone: A/R), is added are compared and calculated (Divakaruni A S, Paradyse A, Ferrick D A, Murphy A N, Jastroch M. 2014. Analysis and Interpretation of Microplate-Based Oxygen Consumption and pH data. In Methods in Enzymology, Volume 547, Chapter 16, 309-354).
# If, in the above-described measurement method, baseline OCR is increased, spare respiratory capacity (SRC) is increased, or mitochondrial ATP production rate (mitoATP) is increased, it may well be concluded that the function of oxidative phosphorylation in T cells has increased.
# CD44 high CD8+ T cells [2] = test: Cell proliferation by 3H uptake in vitro, CD44 high cells; format: cell-based, mice; details: SPD 0.2 μM, 24 hours
# Method: (§1) FIG. 4 CD8^+ T cells were isolated from the spleen of mice without tumor inoculation, and further isolated into CD44^+ (CD44 high) and CD44^− (CD44 low) cell populations. a) CD44 low cells were simulated with CD3/CD28 antibody beads and SPD (0.2 μM). After 30 minutes, 1 hour, 2 hours and 72 hours, OCR was measured with a Seahorse analyzer. b) At the same time, total ATP production and glycolytic pathway-derived or mitochondrial activity-derived ATP production were calculated at 30-minute, 1-hour and 2-hour. c) CD44 low cells (2×10^5 cells) were stimulated with CD3/CD28 antibody beads and SPD (0.2 μM). After 24 hours, cell proliferation was examined by means of 3H uptake. d) Spare respiratory capacity (SRC) was calculated from the OCR measurement after 72 hours in a), and results with and without SPD were compared. e) CD44 low cells were stimulated with CD3/CD28 antibody beads and SPD (0.2 μM). After 24 hours, frequencies between apoptotic and viable cells were calculated by PI and Annexin staining. f-j) CD44 high cells were analyzed under the same conditions and by the same methods as described in a-e) above. As regards statistical analysis, t-test was used for comparison of two groups, and ANOVA was used for comparison of three or more groups. * p<0.05, ** p<0.01, *** p<0.001, **** p<0.0001.
# CD44 high CD8+ T cells [3] = test: Seahorse OCR, ATP production and SRC in vitro, CD44 high cells; format: cell-based, mice; details: SPD 0.2 μM
# Method: as §1
# (§2) Oxygen consumption rates were measured using an XF96 Extracellular Flux Analyzer (Seahorse Bioscience). CD8^+ T cells (4×10^5) per well were seeded in a determined XF96 plate. The four chemical modulators of mitochondrial oxidative phosphorylation, which came with an XF Cell Mito Stress Test Kit (Seahorse Bioscience), were added to the module sequentially. In brief, basal OCR measurement was performed […] sequential addition of oligomycin, FCCP, and rotenone/antimycin A. SRC and ATP production rates were calculated by the following formulas:
# (§3) SRC (pmo; 02/min)=OCRmaximal−OCRbasal
# (§4) mitoATP (pmol ATP/min)=(OCRbasal−OCRoligo)×5.5.
# CD44 low CD8+ T cells = test: Seahorse OCR, ATP production and SRC in vitro, CD44 low cells; format: cell-based, mice; details: SPD 0.2 μM
# Method: as §1, §2, §3, §4
smiles,measurement,setting,value
"NCCCCNCCCN [SPD, spermidine]",mitochondrial morphology,CD44 high CD8+ T cells [1],fusion of mitochondria
same,number of mitochondria per cell,CD44 high CD8+ T cells [1],decreased
same,size per mitochondrion,CD44 high CD8+ T cells [1],increased
same,structure of cristae,CD44 high CD8+ T cells [1],damaged in structures
same,function of oxidative phosphorylation in T cells,T cells,increased
same,cell proliferation,CD44 high CD8+ T cells [2],not found to increase
same,ATP production via glycolysis (glyco ATP),CD44 high CD8+ T cells [3]; 1 to 2 hours after stimulation,not enhanced
same,ATP production via mitochondria (mito ATP),CD44 high CD8+ T cells [3]; 1 to 2 hours after stimulation,not enhanced
same,ATP production,CD44 high CD8+ T cells [3]; 30 minutes after stimulation,tendency to be enhanced
same,mitochondrial oxygen consumption (OCR),CD44 high CD8+ T cells [3]; 30 minutes after stimulation,increased
same,mitochondrial oxygen consumption (OCR),CD44 high CD8+ T cells [3]; 1 hour and 2 hours after stimulation,decreased
same,spare respiratory capacity (SRC),CD44 high CD8+ T cells [3]; 72 hours,enhanced; also recorded: significantly high
same,mitochondrial oxygen consumption (OCR),CD44 high CD8+ T cells [3]; 72 hours after stimulation,increased again
same,mitochondrial oxygen consumption (OCR),"CD44 low CD8+ T cells; 30 minutes, 1 hour, 2 hours and 72 hours after stimulation",increased
same,ATP production via glycolytic pathway (glyco ATP),CD44 low CD8+ T cells; 1 hour after stimulation,significantly high
same,ATP production via intramitochondrial pathway (mito ATP),CD44 low CD8+ T cells; 1 hour after stimulation,significantly high
same,spare respiratory capacity (SRC),CD44 low CD8+ T cells; 72 hours,enhanced; also recorded: significantly high
